In patent US5252495A, “Immunoassay for physostigmine” (priority 1992, dated 1993):
Structures can show the parent of a compound that is named as a salt.

Tests used:
[1] = target: Antibody from Diazo-coupled Immunogen; experiment: RIA cross-reactivity: competition with labeled physostigmine for antibody from diazo-coupled immunogen; format: binding, New Zealand white rabbits; settings: 1:150, max 1000 ng tested
Description: (§1) Antibodies to the physostigmine-BSA immunogen were produced by injecting male New Zealand white rabbits with immunogens formed by either method. Prior to injection, the immunogen was emulsified with an equal volume of complete Freund's adjuvant, purchased from Difco Laboratories of Detroit, Mich. The initial immunization consisted of 0.8 mg of protein injected intracutaneously in multiple dorsal sites of the rabbits. Booster injections containing 0.8 mg of immunogen and incomplete Freund's adjuvant were administered every two months for the next six months. Antisera was collected one week after each booster injection from the central ear vein. The blood was allowed to clot at room temperature and then centrifuged at 1500×g for 15 minutes. The separated serum was stored frozen at -20° C. until assayed for the presence of physostigmine antibody.
(§2) In the assay procedure ^3 H-Physostigmine having specificity of 19.0 Ci/mmole and purchased from the Amersham Corp. of Arlington Heights, Ill., was used as tracer. The dilution of tracer (5000 dpm), antibody (1:150) and physostigmine standards (100-10,000 pg) were made using 0.01M phosphate buffer containing 150 mM sodium chloride with a pH of 7.4. […] Both standard and sample tubes were always analyzed in duplicate. The assay was carried out according to the protocol shown in Table 1 with the reagents were added to the assay tubes in the order shown.
(§3) According to the protocol for the RIA of the present invention, after the addition of antisera, the contents of the tubes were mixed and incubated for 3 hours at 4° C. The antigen which bound to the antibody was separated by adding saturated ammonium sulfate and centrifuging at 2500×g for 15 minutes. After aspiration of the supernatant, the precipitate was washed one time with 50% saturated ammonium sulfate; then the mixture was centrifuged and the supernatent removed. The precipitate was dissolved in 1.0 ml of distilled water, and the solution was transferred to a scintillation vial containing 10.0 ml of acquasol 2.
(§4) The radioactivity which was bound to the antibody was determined in counts per minute with a Beckman LS-3133P Liquid Scintillation Counter. […] The concentration of physostigmine is plotted on the horizontal axis, while the percent inhibition of binding radioactively labeled is plotted on the vertical axis. […] Concentrations of physostigmine in unknown samples were determined according to conventional calculations from the standard curve.
(§5) Competition of the compounds with labeled physostigmine (5000 dpm) for antibody binding sites was determined arbitrarily at 50% inhibition of the physostigmine on the standard curve. Each compound was tested for cross-reactivity with the antibody. The maximum concentration of each compound tested was 1000 ng.

[2] = tested on: antibodies to physostigmine; experiment: Specificity of the antibodies to physostigmine (both antibodies; RIA, HPLC-RIA); format: binding, New Zealand white rabbits; settings: for binding to the antibodies: RIA
Description: as §1
as §2, with “The assay was carried out according to the protocol shown in Table 1 with the reagents were added to the assay tubes in the order shown.” left out
The HPLC system consisted of Waters Associates liquid chromatograph equipped with a 6000 A solvent delivery system, a Model 441 absorbance detector, a U6K injector, a model 720 system controller, an Omni Scribe recorder (Houston Instruments, Houston, Tex.), a model cygnet Fraction collector (ISCO, Lincoln, Nebr.).
High pressure liquid chromatography (HPLC) was performed using a model C18 u Bondapak column (30 cm×0.39 cm. lid) (waters). The Uv detector was fixed at 245 nm with range set at 0.005 absorbance units full scale and flow rate of the mobile phase adjusted to 2 ml/min. […]
The column was operated at ambient temperature. […] Each residue was then reconstituted using the assay buffer and was analyzed for physostigmine by the RIA. […]

[3] = target: Antibody from Mannich Immunogen; experiment: RIA cross-reactivity: competition with labeled physostigmine for antibody from Mannich immunogen; format: binding, New Zealand white rabbits; settings: 1:100, max 1000 ng tested
Description: as §1
In the assay procedure ^3 H-Physostigmine having specificity of 19.0 Ci/mmole and purchased from the Amersham Corp. of Arlington Heights, Ill., was used as tracer. […] Both standard and sample tubes were always analyzed in duplicate. The assay was carried out according to the protocol shown in Table 1 with the reagents were added to the assay tubes in the order shown.
as §3, §4, §5

[4] = cited from earlier work

| Compound | IC50 (50% inhibition of binding of 3H-physostigmine) [1] | IC50 (50% inhibition of binding of 3H-physostigmine) [3] | further results |
| --- | --- | --- | --- |
| CN(C)C(=O)Oc1cccc([N+](C)(C)C)c1 [Neostigmine] | > 1000 ng | > 1000 ng | binding to the antibodies [2]: did not bind to the antibodies |
| COc1ccc2c(c1)c(CC(=O)O)c(C)n2C(=O)c1ccc(Cl)cc1 [Indomethacin] | > 1000 ng | > 1000 ng |  |
| COc1ccc2[nH]cc(CCNC(C)=O)c2c1 [Melatonin] | > 1000 ng | > 1000 ng |  |
| CN1CC[C@@]2(C)C3=CC(=O)C(=O)C=C3N(C)[C@@H]12 [Rubreserine] | 224 ng | 248 ng |  |
| CN(C)C(=O)Oc1ccc[n+](C)c1 [Pyridostigmine] | > 1000 ng | > 1000 ng | binding to the antibodies [2]: did not bind to the antibodies |
| CN1CC[C@@]2(C)c3cc(O)ccc3N(C)[C@@H]12 [Eseroline, eseroline] | 200 ng | 200 ng | amount required to displace radioactive physostigmine from the antibodies, relative to physostigmine [2]: ~150 times |
| Eserine brown | 550 ng | 625 ng |  |
| CNC(=O)Oc1ccc2c(c1)[C@]1(C)CCN(C)[C@@H]1N2C [Physostigmine salts] |  |  | stability in alkaline solutions ([4]; alkaline solutions): unstable in alkaline solutions; solubility in water [4]: soluble in water; color change upon exposure to air and light ([4]; rate enhanced in the presence of moisture): gradually turn red upon exposure to air and light |
| CN1CCC2(C)c3cc4nc5c(=O)c6c(cc-5oc4cc3N(C)C12)N(C)C1N(C)CCC61C (centres unmarked) [Eserine blue] | 600 ng | 575 ng |  |
| C[n+]1ccccc1C=NO [Paralidoxime] | > 1000 ng | > 1000 ng |  |
| NCCc1c[nH]c2ccc(O)cc12 [Serotonin] | > 1000 ng | > 1000 ng |  |
